Among the test systems are EKVX NSCLC; MALME-3M melanoma; OVCAR-4 ovarian; UO-31 renal; SK-MEL-5 melanoma; BT-549 breast; NCI/ADR-RES ovarian; OVCAR-5 ovarian; MCF7 breast; SN12C renal.
What all share (experiment): growth of human tumour cells (NCI), 48 h

Structures are written as SMILES.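 Protocol summary: plate cells (96-well), add compound at 5 concentrations, incubate 48 h, interpolate endpoints linearly. At the GI50, growth is halved. TGI marks complete inhibition of growth.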

With `CN(C)c1ccc(Nc2c3ccccc3nc3ccccc23)cc1`, the GI50 was 1.4 µM in the assay with EKVX NSCLC; 1.2 µM in the assay on MALME-3M melanoma; 1.26 µM in the assay on OVCAR-4 ovarian; 0.359 µM in the assay on UO-31 renal; 1.03 µM in the assay on SK-MEL-5 melanoma; 1.71 µM with BT-549 breast. Besides, the GI50 was 1.12 µM in the assay on NCI/ADR-RES ovarian, 1.54 µM in the assay on OVCAR-5 ovarian, 0.471 µM with MCF7 breast and 1.03 µM with SN12C renal. In addition, the TGI in the assay with EKVX NSCLC stood at 6.35 µM; in the assay on MALME-3M melanoma, 3.03 µM; in the assay on OVCAR-4 ovarian it was 5.44 µM; in the assay on UO-31 renal it was 1.87 µM; in the assay with SK-MEL-5 melanoma, 2.2 µM; with BT-549 breast, 8.19 µM. In addition, the TGI in the assay with NCI/ADR-RES ovarian is 2.93 µM; in the assay with OVCAR-5 ovarian, 6.72 µM; in the assay on MCF7 breast, 3.44 µM; in the assay on SN12C renal, 6.76 µM.
For the molecule `[2H]C([2H])([2H])NC(=O)c1nnc(NC(=O)C2CC2)cc1Nc1cccc(-c2ncn(C)n2)c1OC`, the GI50 with EKVX NSCLC is 81.4 µM; with MALME-3M melanoma, 98 µM; with OVCAR-4 ovarian, 18.2 µM; in the assay with UO-31 renal, 5.93 µM; in the assay with SK-MEL-5 melanoma, 50.2 µM; in the assay with BT-549 breast it was 23.2 µM. Also, the GI50 in the assay with NCI/ADR-RES ovarian is 51.3 µM; with OVCAR-5 ovarian, over 100 µM; with MCF7 breast, 92.9 µM; with SN12C renal it was 34.5 µM. The TGI in the assay on EKVX NSCLC is over 100 µM; with MALME-3M melanoma, over 100 µM; in the assay on OVCAR-4 ovarian, over 100 µM; in the assay with UO-31 renal, 60.4 µM; in the assay with SK-MEL-5 melanoma it was over 100 µM; with BT-549 breast it was over 100 µM. The TGI with NCI/ADR-RES ovarian, with OVCAR-5 ovarian, in the assay on MCF7 breast and in the assay on SN12C renal was over 100 µM each time.
As to `CCCCC(SC(=S)N1CCCC1)C(=O)Nc1nc(CC(=O)OCC)cs1` (stereo not given), the GI50 is 56.4 µM in the assay on EKVX NSCLC; over 100 µM with MALME-3M melanoma; 43.4 µM in the assay on OVCAR-4 ovarian; 36.9 µM in the assay on UO-31 renal; 13.1 µM with SK-MEL-5 melanoma; 59.7 µM with BT-549 breast. The GI50 in the assay on NCI/ADR-RES ovarian is 37.6 µM; in the assay on OVCAR-5 ovarian it was 37.2 µM; with MCF7 breast, 1.25 µM; in the assay with SN12C renal it was 85.2 µM. Further, the TGI is over 100 µM with EKVX NSCLC; over 100 µM with MALME-3M melanoma; over 100 µM with OVCAR-4 ovarian; over 100 µM with UO-31 renal; 45.6 µM with SK-MEL-5 melanoma; over 100 µM in the assay on BT-549 breast. In addition, the TGI in the assay on NCI/ADR-RES ovarian, in the assay with OVCAR-5 ovarian, with MCF7 breast and in the assay with SN12C renal was over 100 µM in each case.
As to `COc1ccc(-c2c(C)c(C(=O)O)nc(-c3ccc4c(O)c(OC)c5c(c4n3)=NC(C)(C)N=5)c2N)c(O)c1OC`, the TGI with EKVX NSCLC is over 100 µM; in the assay on MALME-3M melanoma, 17.7 µM; in the assay on OVCAR-4 ovarian it was over 100 µM; in the assay on UO-31 renal it was 27.5 µM; in the assay with SK-MEL-5 melanoma, 25.4 µM; in the assay with BT-549 breast, 82.7 µM. For the same molecule, the TGI was 58 µM in the assay with NCI/ADR-RES ovarian, over 100 µM in the assay with OVCAR-5 ovarian, over 100 µM with MCF7 breast and 41.7 µM in the assay on SN12C renal.
`O=[N+]([O-])c1cccc(/C=N/NC2=CS(=O)(=O)C=C2)c1`: the TGI with EKVX NSCLC, in the assay on MALME-3M melanoma, in the assay on OVCAR-4 ovarian, with UO-31 renal, with SK-MEL-5 melanoma and with BT-549 breast was over 100 µM each time. Moreover, the TGI in the assay on NCI/ADR-RES ovarian, in the assay on OVCAR-5 ovarian, in the assay on MCF7 breast and in the assay with SN12C renal was over 100 µM throughout.
In the case of `O=[N+]([O-])c1ccc(NN=C2CN3CCN(C2)c2ccccc23)c([N+](=O)[O-])c1`, the TGI in the assay with EKVX NSCLC, in the assay with MALME-3M melanoma, in the assay with OVCAR-4 ovarian, with UO-31 renal, with SK-MEL-5 melanoma and in the assay on BT-549 breast was over 100 µM in each case. For the same molecule, the TGI with NCI/ADR-RES ovarian, in the assay with OVCAR-5 ovarian, in the assay on MCF7 breast and with SN12C renal was over 100 µM each time.
As to `O=[N+]([O-])/C=C/c1c(Cl)cccc1Cl`, the TGI in the assay on EKVX NSCLC came to 16.9 µM; with MALME-3M melanoma, 9.81 µM; in the assay on OVCAR-4 ovarian, 11.4 µM; with UO-31 renal, 13.3 µM; with SK-MEL-5 melanoma, 8.78 µM; in the assay on BT-549 breast, 4.96 µM. The TGI in the assay on NCI/ADR-RES ovarian came out at 12.5 µM; with OVCAR-5 ovarian it was 16.2 µM; in the assay on MCF7 breast it was 3.29 µM; with SN12C renal, 5.65 µM.
Consider `CO/N=C(\COc1ccc2c(=O)c3ccccc3oc2c1)c1ccccc1`, for which the GI50 was 20.9 µM with EKVX NSCLC; 19.1 µM in the assay on MALME-3M melanoma; 84.3 µM with OVCAR-4 ovarian; 24.2 µM in the assay on UO-31 renal; 38.1 µM in the assay on SK-MEL-5 melanoma; 26.8 µM in the assay with BT-549 breast. The GI50 was 77.1 µM in the assay on NCI/ADR-RES ovarian, 38.4 µM in the assay with OVCAR-5 ovarian, 37.9 µM in the assay on MCF7 breast and 35.1 µM in the assay on SN12C renal. Moreover, the TGI in the assay with EKVX NSCLC is 50.6 µM; in the assay with MALME-3M melanoma, 48.3 µM; in the assay with OVCAR-4 ovarian, over 100 µM; in the assay on UO-31 renal it was 63 µM; in the assay on SK-MEL-5 melanoma it was over 100 µM; in the assay with BT-549 breast it was 74.5 µM. For the same molecule, the TGI with NCI/ADR-RES ovarian, with OVCAR-5 ovarian, in the assay on MCF7 breast and in the assay with SN12C renal was over 100 µM in each case.
As for `O=c1[nH]c(=O)n(C2CC(O)C(CO)O2)cc1Oc1ccccc1` (stereo not given), the TGI in the assay with EKVX NSCLC, with MALME-3M melanoma, with OVCAR-4 ovarian, in the assay on UO-31 renal, in the assay on SK-MEL-5 melanoma and in the assay on BT-549 breast was over 100 µM each time. In addition, the TGI in the assay on NCI/ADR-RES ovarian, in the assay on OVCAR-5 ovarian, in the assay with MCF7 breast and with SN12C renal was over 100 µM each time.

Source of the values: PubChem BioAssay (NCI).
